Results taken from US10875855B2 (priority 2011, dated 2020).
Like-named read-outs stand apart in the source and are kept apart here.

Experiments:
[1] = system: influenza A virus (A/PR/8/34); assay: microbe, parasite or virus in culture; format: cell-based
[2] = system: influenza A virus (A/PR/8/34); assay: MDCK cytopathic effect (CPE) cell protection assay, ATP detection; format: cell-based; settings: Influenza A virus, PR/8, MDCK
[3] = Influenza A virus, PR/8, Table 1, mean all, class symbol, read-out: bDNA EC99
[4] = Influenza A virus, PR/8, Table 1, viral RNA 50% of control wells, mean all, class symbol, read-out: bDNA EC50
[5] = 72 h, Table 1, MDCK cells, A/PR/8/34, 72 hours, 50% cell protection, mean all, class symbol, read-out: MDCK IC50
[6] = Table 2, class symbol in brackets, read-out: MDCK cell IC50 (uM), class
[7] = Table 2, comparison compounds of WO2005/095400, mean value, read-out: MDCK cell IC50

| SMILES | EC99 [1, 3] [µM] | EC50 [1, 4] [nM] | IC50 [2, 5] [µM] | other results |
| --- | --- | --- | --- | --- |
| CC1(C(CC(=O)O)Nc2nc(-c3n[nH]c4ncc(F)cc34)ncc2F)CCCC1 (racemic) [Compound 12, (+/−)-3-(5-fluoro-2-(5-fluoro-1H-pyrazolo[3,4-b]pyridin-3-yl)pyrimidin-4-ylamino)-3-(1-methylcyclopentyl)propanoic acid] | < 0.3 | < 300 | < 0.3 |  |
| CC(C)(C)C(CCO)Nc1nc(-c2c[nH]c3ncc(F)cc23)c(C#N)cc1F (racemic) [Compound 41, (+/−)-5-fluoro-2-(5-fluoro-1H-pyrrolo[2,3-b]pyridin-3-yl)-6-(1-hydroxy-4,4-dimethylpentan-3-ylamino)pyridine-3-carbonitrile] | 0.3 to 3.3 | < 300 | < 0.3 |  |
| O=C(O)CC(Nc1nc(-c2c[nH]c3ncc(F)cc23)ncc1F)C1CCC1 (racemic) [Compound 44, (+/−)-3-cyclobutyl-3-((5-fluoro-2-(5-fluoro-1H-pyrrolo[2,3-b]pyridin-3-yl)pyrimidin-4-yl)amino)propanoic acid] | 0.3 to 3.3 | 300 to 3300 | < 0.3 |  |
| CC(C)(C)C(CCO)Nc1nc(-c2c[nH]c3ncc(F)cc23)ncc1F (racemic) [Compound 45, (+/−)-3-((5-fluoro-2-(5-fluoro-1H-pyrrolo[2,3-b]pyridin-3-yl)pyrimidin-4-yl)amino)-4,4-dimethylpentan-1-ol] | > 3.3 | < 300 | 0.3 to 3.3 |  |
| CC(C)(C)C(Cc1nn[nH]n1)Nc1nc(-c2c[nH]c3ncc(F)cc23)ncc1F (racemic) [Compound 55, (+/−)-N-(3,3-dimethyl-1-(2H-tetrazol-5-yl)butan-2-yl)-5-fluoro-2-(5-fluoro-1H-pyrrolo[2,3-b]pyridin-3-yl)pyrimidin-4-amine] | 0.3 to 3.3 | < 300 | < 0.3 |  |
| CC(C)(C)C(Cc1cc(O)no1)Nc1nc(-c2c[nH]c3ncc(F)cc23)ncc1F (racemic) [Compound 62, (+/−)-5-(2-((5-fluoro-2-(5-fluoro-1H-pyrrolo[2,3-b]pyridin-3-yl)pyrimidin-4-yl)amino)-3,3-dimethylbutyl)isoxazol-3-ol] | 0.3 to 3.3 | 300 to 3300 | < 0.3 |  |
| CC(C)(C)C(Cc1nc(=O)o[nH]1)Nc1nc(-c2c[nH]c3ncc(F)cc23)ncc1F (racemic) [Compound 65, (+/−)-3-(2-((5-fluoro-2-(5-fluoro-1H-pyrrolo[2,3-b]pyridin-3-yl)pyrimidin-4-yl)amino)-3,3-dimethylbutyl)-1,2,4-oxadiazol-5(2H)-one] | 0.3 to 3.3 | < 300 | < 0.3 |  |
| O=C(O)CC(Nc1nc(-c2c[nH]c3ncc(F)cc23)ncc1F)C1(C(F)(F)F)CCCC1 (racemic) [Compound 75, (+/−)-3-(5-fluoro-2-(5-fluoro-1H-pyrrolo[2,3-b]pyridin-3-yl)pyrimidin-4-ylamino)-3-(1-(trifluoromethyl)cyclopentyl)propanoic acid] | > 3.3 | 300 to 3300 | > 3.3 |  |
| CC(C)(CF)C(CC(=O)O)Nc1nc(-c2c[nH]c3ncc(F)cc23)ncc1F (racemic) [Compound 76, (+/−)-5-Fluoro-3-((5-fluoro-2-(5-fluoro-1H-pyrrolo[2,3-b]pyridin-3-yl)pyrimidin-4-yl)amino)-4,4-dimethylpentanoic acid] | 0.3 to 3.3 | < 300 | 0.3 to 3.3 | EC50 ([1]; Influenza A virus, PR/8, exemplary data, bDNA, read-out: EC50): 250 nM; EC99 ([1]; exemplary data, bDNA): 1.4 µM; IC50 ([2]; exemplary data, MDCK cell protection, read-out: IC50): 0.423 µM |
| CCOC(=O)CC(Nc1nc(-c2c[nH]c3ncc(F)cc23)ncc1F)C1(C)CCCCC1 (racemic) [Compound 77, (+/−)-ethyl 3-(5-fluoro-2-(5-fluoro-1H-pyrrolo[2,3-b]pyridin-3-yl)pyrimidin-4-ylamino)-3-(1-methylcyclohexyl)propanoate] | > 3.3 | 300 to 3300 | > 3.3 |  |
| CC(C)(C(CC(=O)O)Nc1nc(-c2c[nH]c3ncc(F)cc23)ncc1F)C(F)(F)F (racemic) [Compound 79, (+/−)-5,5,5-Trifluoro-3-(5-fluoro-2-(5-fluoro-1H-pyrrolo[2,3-b]pyridin-3-yl)pyrimidin-4-ylamino)-4,4-dimethylpentanoic acid] | 0.3 to 3.3 | < 300 | 0.3 to 3.3 |  |
| CC1(C(CC(=O)O)Nc2nc(-c3c[nH]c4ncc(Cl)cc34)ncc2F)CCCCC1 (racemic) [Compound 83, (+/−)-3-(2-(5-Chloro-1H-pyrrolo[2,3-b]pyridin-3-yl)-5-fluoropyrimidin-4-ylamino)-3-(1-methylcyclohexyl)propanoic acid] | 0.3 to 3.3 | < 300 | 0.3 to 3.3 |  |
| CC(CF)(CF)C(CC(=O)O)Nc1nc(-c2c[nH]c3ncc(F)cc23)ncc1F (racemic) [Compound 84, (+/−)-5-Fluoro-3-((5-fluoro-2-(5-fluoro-1H-pyrrolo[2,3-b]pyridin-3-yl)pyrimidin-4-yl)amino)-4-(fluoromethyl)-4-methylpentanoic acid] | > 3.3 | 300 to 3300 | 0.3 to 3.3 |  |
| CC(C)(C)C(CC(=O)O)Nc1nc(-c2c[nH]c3ncc(F)cc23)ncc1Cl (racemic) [Compound 85, (+/−)-3-((5-chloro-2-(5-fluoro-1H-pyrrolo[2,3-b]pyridin-3-yl)pyrimidin-4-yl)amino)-4,4-dimethylpentanoic acid] | > 3.3 | < 300 | 0.3 to 3.3 |  |
| O=C(O)CC(Nc1nc(-c2c[nH]c3ncc(F)cc23)ncc1F)C12CC3CC(CC(C3)C1)C2 (racemic) [Compound 86, (+/−)-3-(1-Adamantyl)-3-[[5-fluoro-2-(5-fluoro-1H-pyrrolo[2,3-b]pyridin-3-yl)pyrimidin-4-yl]amino]propionic acid] | 0.3 to 3.3 | < 300 | < 0.3 |  |
| O=C(O)CC(Nc1nc(-c2c[nH]c3ncc(F)cc23)ncc1F)C1(C(F)(F)F)CC1 (racemic) [Compound 93, (+/−)-3-((5-Fluoro-2-(5-fluoro-1H-pyrrolo[2,3-b]pyridin-3-yl)pyrimidin-4-yl)amino)-3-(1-(trifluoromethyl)cyclopropyl)propanoic acid] | > 3.3 | 300 to 3300 | 0.3 to 3.3 |  |
| O=C(O)CC(Nc1nc(-c2c[nH]c3ncc(Cl)cc23)ncc1F)C12CC3CC(CC(C3)C1)C2 (racemic) [Compound 94, (+/−)-3-(1-Adamantyl)-3-[[2-(5-chloro-1H-pyrrolo[2,3-b]pyridin-3-yl)-5-fluoro-pyrimidin-4-yl]amino]propanoic acid] | < 0.3 | < 300 | < 0.3 |  |
| CNS(=O)(=O)C[C@@H](Nc1nc(-c2c[nH]c3ncc(F)cc23)c(C#N)cc1F)C(C)(C)C [Compound 26, (S)-2-(5-Cyano-3-fluoro-6-(5-fluoro-1H-pyrrolo[2,3-b]pyridin-3-yl)pyridin-2ylamino)-N,3,3-trimethylbutane-1-sulfonamide] | < 0.3 | < 300 |  |  |
| CN(C)S(=O)(=O)C[C@@H](Nc1nc(-c2c[nH]c3ncc(F)cc23)c(C#N)cc1F)C(C)(C)C [Compound 27, (S)-2-(5-Cyano-3-fluoro-6-(5-fluoro-1H-pyrrolo[2,3-b]pyridin-3-yl)pyridin-2ylamino)-N,N,3,3-tetramethylbutane-1-sulfonamide] | 0.3 to 3.3 | < 300 |  |  |
| CC(C)(C)[C@@H](CS(=O)(=O)NC1CC1)Nc1nc(-c2c[nH]c3ncc(F)cc23)c(C#N)cc1F [Compound 28, (S)-2-(5-Cyano-3-fluoro-6-(5-fluoro-1H-pyrrolo[2,3-b]pyridin-3-yl)pyridin-2ylamino)-N-cyclopropyl-3,3-dimethylbutane-1-sulfonamide] | < 0.3 | < 300 |  |  |
| COCCNS(=O)(=O)C[C@@H](Nc1nc(-c2c[nH]c3ncc(F)cc23)c(C#N)cc1F)C(C)(C)C [Compound 29, (S)-2-((5-cyano-3-fluoro-6-(5-fluoro-1H-pyrrolo[2,3-b]pyridin-3-yl)pyridin-2-yl)amino)-N-(2-methoxyethyl)-3,3-dimethylbutane-1-sulfonamide] | 0.3 to 3.3 | < 300 |  |  |
| CC(C)(C)[C@@H](CS(N)(=O)=O)Nc1nc(-c2c[nH]c3ncc(F)cc23)c(C#N)cc1F [Compound 30, (S)-2-((5-cyano-3-fluoro-6-(5-fluoro-1H-pyrrolo[2,3-b]pyridin-3-yl)pyridin-2-yl)amino)-3,3-dimethylbutane-1-sulfonamide] | < 0.3 | < 300 |  |  |
| CCCNS(=O)(=O)C[C@@H](Nc1nc(-c2c[nH]c3ncc(F)cc23)c(C#N)cc1F)C(C)(C)C [Compound 31, (S)-2-((5-cyano-3-fluoro-6-(5-fluoro-1H-pyrrolo[2,3-b]pyridin-3-yl)pyridin-2-yl)amino)-3,3-dimethyl-N-propylbutane-1-sulfonamide] | < 0.3 | < 300 |  |  |
| CC(C)(C)C(C[S@+]([O-])CC(=O)O)Nc1nc(-c2c[nH]c3ncc(F)cc23)ncc1F (stereo partly drawn) [Compound 64, 2-((S)-2-(5-fluoro-2-(5-fluoro-1H-pyrrolo[2,3-b]pyridin-3-yl)pyrimidin-4-ylamino)-3,3-dimethylbutylsulfinyl)ethanoic acid] | > 3.3 | < 300 |  |  |
| CC(O)C[C@@H](Nc1nc(-c2c[nH]c3ncc(F)cc23)ncc1F)C(C)(C)C (stereo partly drawn) [Compound 72, (4R)-4-((5-Fluoro-2-(5-fluoro-1H-pyrrolo[2,3-b]pyridin-3-yl)pyrimidin-4-yl)amino)-5,5-dimethylhexan-2-ol] | > 3.3 |  |  |  |
| Clc1cnc2[nH]cc(-c3cccc(NC4CCCCC4)n3)c2c1 [Compound C1, reference compound] |  |  |  | IC50 [2, 6]: > 3.3 µM; IC50 [2, 7]: > 20 µM |
| Clc1cnc2[nH]cc(-c3cccc(NCC4CCCNC4)n3)c2c1 (stereo not shown) [Compound C2, reference compound] |  |  |  | IC50 [2, 6]: > 3.3 µM; IC50 [2, 7]: > 20 µM |
